Here are results for 11 molecules from patent US11072606B2, “Compositions and methods for treating diseases and conditions” (University of Pittsburgh—Of the Commonwealth System of …, priority 2014, dated 2021).

≈ marks a conversion by molar mass, not a printed value.

The test system of one series is TNFα cytokine release. Description: LPS-induced TNFα cytokine release in PBMC (ELISA). Particulars: LPS 50 ng/ml for 16 hours concurrently with compound, TNFα by ELISA. Type of series: cell-based. The protocol:
Peripheral blood mononuclear cells (PBMC) (0.2 ml at 0.3×10^6/ml) were treated with lipopolysaccharide (LPS) (50 ng/ml) for 16 hours concurrently with each compound tested at different concentrations. TNFα cytokine release was monitored by ELISA. These concentrations were used to calculate the IC50.

Series [1] in a line: U937 monocyte cell death, Trypan blue staining. Type of series: cell-based. The settings on record: human; U937 monocytes, compound for 16 hours, Trypan blue dead cells; read-out: LC50. The method, then: U937 monocytes (0.2 ml at 0.3×10^6/ml) were treated with each compound at different concentrations for 16 hours. The cells were then stained with Trypan blue to identify dead cells, and to calculate the LC50. Combined values were used to generate therapeutic indexes (TI)=LC50/IC50.

For series [2], the system named is LPS induced lung inflammation. Description: LPS induced lung inflammation in mice (FIG. 5). Particulars: compound P.O., LPS 3 mg/kg i.t., 18 h, lavage protein, cell counts, cytokine secretion, *P<0.05 versus Vehicle. Type of series: in vivo. The protocol:
BC-1421 was administered to mice though P.O., and mice were then immediately challenged with LPS (3 mg/kg, i.t.) for an additional 18 h. Mice were then euthanized and lungs were lavaged with saline, harvested, and then homogenized. Lavage protein, cell counts and cytokine secretion were measured in. The data represent n=4-5 mice/group, *P<0.05 versus Vehicle.

For `c1ccc(-c2ncc(CNCCNCc3cnc(-c4ccccn4)nc3)cn2)nc1` [Compound 209], the half-maximal inhibitory concentration (IC50) with TNFα cytokine release was in the range of 2 to 20 µg/mL (≈ 5.02 to 50.2 µM). In addition, the CC50 at 16 h in series [1] was in the range of 10 to 100 µg/mL (≈ 25.1 to 251 µM). As to `C[C@H](CNCc1ccc(-c2ncccn2)cc1)NCc1ccc(-c2ncccn2)cc1` [Compound 205], the IC50 in the series on TNFα cytokine release was less than 2 µg/mL. Further, the CC50 at 16 h in series [1] is greater than 100 µg/mL. The like results for `CC(C)(CNCc1ccc(-c2ncccn2)cc1)NCc1ccc(-c2ncccn2)cc1` [Compound 206] were, in that order, less than 2 µg/mL and greater than 100 µg/mL. On the same counts, the results for `c1nnc(-c2ccc(CNCCNCc3ccc(-c4nnco4)cc3)cc2)o1` [Compound 202] are less than 2 µg/mL and greater than 100 µg/mL. On the same counts, the results for `c1ncn(-c2ccc(CNCCNCc3ccc(-n4cncn4)cc3)cc2)n1` [Compound 203] are 2 to 20 µg/mL (≈ 5.34 to 53.4 µM) and greater than 100 µg/mL.

For the molecule `Fc1cc(CNCCNCc2ccc(-c3ncccn3)c(F)c2)ccc1-c1ncccn1` [BC-1421, N^1,N^2-bis(3-fluoro-4-(pyrimidin-2-yl)benzyl)ethane-1,2-diamine], the “LPS induced lung inflammation” value in series [2] is “reduces LPS induced lung inflammation”. `CC(C)(NCc1ccc(-c2ncccn2)cc1)C(C)(C)NCc1ccc(-c2ncccn2)cc1` [Compound 207]: the IC50 in the series on TNFα cytokine release lay in the range of 2 to 20 µg/mL (≈ 4.42 to 44.2 µM). In series [1], the CC50 at 16 h is greater than 100 µg/mL. Consider `c1nc(N2CCCC2)ncc1CNCCCCNCc1cnc(N2CCCC2)nc1` [Compound 210], for which the concentration for half-maximal inhibition (IC50) with TNFα cytokine release was less than 2 µg/mL. For the same molecule, the CC50 at 16 h in series [1] was in the range of 1 to 10 µg/mL (≈ 2.44 to 24.4 µM). In the case of `C[C@@H](CNCc1ccc(-c2ncccn2)cc1)NCc1ccc(-c2ncccn2)cc1` [Compound 204], in the series on TNFα cytokine release, the IC50 is less than 2 µg/mL. Also, in series [1], the CC50 at 16 h was greater than 100 µg/mL. Regarding `c1ccc(-c2ncc(CNCCNCc3cnc(-c4ccccc4)nc3)cn2)cc1` [Compound 208], in the series on TNFα cytokine release, the IC50 was 2 to 20 µg/mL (≈ 5.04 to 50.4 µM). In addition, the CC50 at 16 h in series [1] lay within 10 to 100 µg/mL (≈ 25.2 to 252 µM).

As for `c1ncc(-c2ccc(CNCCNCc3ccc(-c4cncnc4)cc3)cc2)cn1` [Compound 201], the 50% inhibitory concentration (IC50) with TNFα cytokine release was less than 2 µg/mL. The CC50 at 16 h in series [1] is greater than 100 µg/mL.
